Laboratory results: patent publication US20250099517A1, “Use of Lactobacillus reuteri Y7 strain for prevention or treatment of ocular diseases” (Taipei Medical University, priority 2023, published 2025)

Experiments:
[1] = test system: photosensitivity of a retina; experiment: scotopic electroretinography (ERG), blue light-induced macular disease model; format: in vivo, C57BL/6 mice
Description: The C57BL/6 mice, which weighed between 23 and 25 g, were divided into seven groups randomly. In each group, the six mice induced by blue light successfully were incorporated in experiments. The samples dissolved in deuterium-depleted water (DDW) were fed to mice through oral tubes once a day. The groups were named and introduced as follows: • (1) Solvent not classified group (NC): The mice were fed with 0.2 ml deuterium-depleted water (DDW) through tubes; • (2) Negative control group (Blue light (BL)): The mice were fed with 0.2 ml deuterium-depleted water (DDW) through tubes and exposed to blue light; • (3) Low-dosage Y7 probiotics group […]): The mice were fed with low-dosage Y7 probiotics (probiotic counts of 1.0×10^8 CFU/ml dissolved in 0.2 ml DDW per day) and exposed to blue light; • (4) High-dosage Y7 probiotics group […]): The mice were fed with high-dosage Y7 probiotics (probiotic counts of 1.0×10^9 CFU/ml dissolved in 0.2 ml DDW per day) and exposed to blue light; • (5) Positive control group (lutein (LU)): The mice were fed with lutein and exposed to blue light. The recommended human dosage of lutein is 30 mg. The mouse cage (48×25×20 cm) placed inside a stainless ventilated box was equipped with blue light boards as blue light sources around and above. In the experiment of animals exposed to blue light, six-week-old mice staying in the mouse cage were fed with drinking water as well as fodders and exposed to 400 Lux blue light illumination under the light-dark cycle of 12-hour light and 12-hour dark. The experiment was aimed at causing mice' late dry macular disease induced by chronic light injuries for simulating a human being's macular disease after long-term exposure to short-wavelength blue light from 3C products in daily life. The mydriatic agent, Atropine (0.125%), was distilled into mice' eyes for mydriasis in advance. Then, mice were anesthetized with Zoletil (40 mg/kg) and Xylazine (10 mg/kg) through intraperitoneal (IP); 2% Methocel gel as a lubricant was distilled into eyes of a deeply anesthetized mouse having placed on a clean bench. The ERG analysis was enabled with the electrodes installed completely. A mouse was stimulated with single excitation light for collection of ERG from which a negative a-wave and a positive b-wave were generated. For the ERG analysis, the excitation time was defined as the period from the initial time of excitation light emitted to the time of the a-wave (b-wave) peak detected; the amplitude of a-wave was defined as the amplitude difference between the background ERG value at the initial time of excitation light emitted and the ERG value of the a-wave peak; the amplitude of b-wave was defined as the amplitude difference between the ERG value of the a-wave peak and the ERG value of the b-wave peak. Any change observed in the excitation time or an amplitude referred to functions of retinal cells normal or abnormal. In electrophysiology, the a-wave denotes the healthy condition of photoreceptors at outside of a retina; the b-wave denotes the healthy condition of medial nerve cells of a retina such as bipolar cells and horizontal cells; the c-wave denotes the healthy condition of retinal pigment epithelium (RPE) on a retina. In the experiment, the scotopic electroretinography (ERG) was used in inspecting influence of exposure to blue light on photosensitivity of a mouse's retina. When light was received by a mouse's eyes, opsins and 11-cis-retinal on photoreceptor cells were combined with each other for a visual cycle such that a membrane potential difference was produced for transmission of ERG by the retinal neuron layer sequentially, that is, the electroretinographic physiological function test was conducted through recording peak potential differences generated by different nerve cells. […]

total retinal thickness = experiment: H&E sections of retinal tissues, total retinal thickness by ImageJ; format: in vivo, C57BL/6 mice; settings: Day 35, p<0.05
Description: The C57BL/6 mice, which weighed between 23 and 25 g, were divided into seven groups randomly. In each group, the six mice induced by blue light successfully were incorporated in experiments. The samples dissolved in deuterium-depleted water (DDW) were fed to mice through oral tubes once a day. The groups were named and introduced as follows: • (1) Solvent not classified group (NC): The mice were fed with 0.2 ml deuterium-depleted water (DDW) through tubes; • (2) Negative control group (Blue light (BL)): The mice were fed with 0.2 ml deuterium-depleted water (DDW) through tubes and exposed to blue light; • (3) Low-dosage Y7 probiotics group […]): The mice were fed with low-dosage Y7 probiotics (probiotic counts of 1.0×10^8 CFU/ml dissolved in 0.2 ml DDW per day) and exposed to blue light; • (4) High-dosage Y7 probiotics group […]): The mice were fed with high-dosage Y7 probiotics (probiotic counts of 1.0×10^9 CFU/ml dissolved in 0.2 ml DDW per day) and exposed to blue light; • (5) Positive control group (lutein (LU)): The mice were fed with lutein and exposed to blue light. The recommended human dosage of lutein is 30 mg. The mouse cage (48×25×20 cm) placed inside a stainless ventilated box was equipped with blue light boards as blue light sources around and above. In the experiment of animals exposed to blue light, six-week-old mice staying in the mouse cage were fed with drinking water as well as fodders and exposed to 400 Lux blue light illumination under the light-dark cycle of 12-hour light and 12-hour dark. The experiment was aimed at causing mice' late dry macular disease induced by chronic light injuries for simulating a human being's macular disease after long-term exposure to short-wavelength blue light from 3C products in daily life. The eyes of a mouse sacrificed after the experiment on Day 35 were taken out for H&E stains. The section of a retinal tissue was checked for any change in each layer of a sacrificed mouse's retina and compared with experimental results of SD-OCT. The images for a fraction of retina below the pupil vertically and nearest to optic nerves were captured from a section through the 200× magnification, as shown in FIG. 6a.

[2] = LU lutein group, ERG Day 35, p<0.05

CC1=C[C@H](O)CC(C)(C)[C@H]1/C=C/C(C)=C/C=C/C(C)=C/C=C/C=C(C)/C=C/C=C(C)/C=C/C1=C(C)C[C@@H](O)CC1(C)C [lutein, reference compound]
amplitude of b-waves, BL group versus treated group [1, 2]: BL group decreased significantly compared with the LU or Y7H group | amplitude of c-waves compared with the BL group [1, 2]: significant difference | total retinal thickness compared with the BL group (total retinal thickness; LU lutein group): significant difference | total retinal thickness compared with the NC group (total retinal thickness; LU lutein group): decreased significantly

Lactobacillus reuteri Y7 [Y7 probiotics]
amplitude of a-waves compared with the BL group ([1]; mouse, in vivo): increased significantly | amplitude of a-waves compared with the LU group ([1]; mouse, in vivo): decreased significantly | amplitude of a-waves compared with the NC group ([1]; mouse, in vivo): decreased significantly | amplitude of b-waves, BL group versus treated group ([1]; mouse, in vivo): BL group decreased significantly compared with the LU or Y7H group | amplitude of c-waves compared with the BL group ([1]; mouse, in vivo): significant difference | total retinal thickness compared with the BL group (total retinal thickness; Y7H high-dosage group): significant difference | total retinal thickness compared with the NC group (total retinal thickness; Y7H high-dosage group): decreased significantly | total retinal thickness compared with the BL group (total retinal thickness; Y7L low-dosage group): significant difference | total retinal thickness compared with the NC group (total retinal thickness; Y7L low-dosage group): decreased significantly
